# Laboratory results taken from patent publication US11673910B2, “Macrolides with modified desosamine sugars and uses thereof” (Zikani Therapeutics, Inc., priority 2017, dated 2023).
# Key:
# Type in all cases: cell-based
# [1] = tested on: A. baumannii strain MP-15; assay: Broth dilution MIC determination (CLSI) against A. baumannii strain MP-15; conditions: Acinetobacter baumannii, MP15
# Procedure: (§1) Minimum inhibitory concentrations (MICs) for macrolides described herein were determined for E. coli strain MP-4, K. pneumoniae strain MP-548, P. aeruginosa strain MP-3, A. baumannii strain MP-15, and S. aureus strain MP-12 using similar test procedures as published in US Pat. Pub. No. 2017/0305953. MIC data is represented as “+++” for values less than or equal to 4 mg/L, “++” for values of greater than or equal to 8 mg/L and less than 32 mg/L, and “+” for values of 32 mg/L or greater. ND indicates no data for a particular compound. CLSI standard procedures for broth dilution MIC determination were used.
# [2] = tested on: K. pneumoniae strain MP-548; assay: Broth dilution MIC determination (CLSI) against K. pneumoniae strain MP-548; conditions: Klebsiella pneumoniae, MP548
# Procedure: as §1
# [3] = tested on: S. aureus strain MP-12; assay: Broth dilution MIC determination (CLSI) against S. aureus strain MP-12; conditions: Staphylococcus aureus, MP12, strain MP-12
# Procedure: as §1
# [4] = tested on: P. aeruginosa strain MP-3; assay: Broth dilution MIC determination (CLSI) against P. aeruginosa strain MP-3; conditions: Pseudomonas aeruginosa, MP3
# Procedure: as §1
# [5] = tested on: E. coli strain MP-4; assay: Broth dilution MIC determination (CLSI) against E. coli strain MP-4; conditions: Escherichia coli, MP4
# Procedure: as §1
Compound,MIC [1],MIC [2],MIC [3],MIC [4],MIC [5]
CC[C@H]1OC(=O)C(C)C(=O)[C@H](C)[C@@H](O[C@@H]2OC(CNCc3ccc(F)cc3F)CC(N(C)C)C2O)[C@](C)(OC)C[C@@H](C)CN[C@H](C)[C@H]2NC(=O)O[C@@]21C (stereo partly shown) [Compound 31],≥ 32 µg/mL,≥ 32 µg/mL,≥ 32 µg/mL,≥ 32 µg/mL,≤ 4 µg/mL
CC[C@H]1OC(=O)C(C)C(=O)[C@H](C)[C@@H](O[C@@H]2OC(CN[C@@H](C)c3ccc(F)cc3)CC(N(C)C)C2O)[C@](C)(OC)C[C@@H](C)CN[C@H](C)[C@H]2NC(=O)O[C@@]21C (stereo partly shown) [Compound 32],≥ 32 µg/mL,≥ 32 µg/mL,≥ 32 µg/mL,≥ 32 µg/mL,≤ 4 µg/mL
CC[C@H]1OC(=O)C(C)C(=O)[C@H](C)[C@@H](O[C@@H]2OC(CN[C@H](C)c3ccc(F)cc3)CC(N(C)C)C2O)[C@](C)(OC)C[C@@H](C)CN[C@H](C)[C@H]2NC(=O)O[C@@]21C (stereo partly shown) [Compound 33],≥ 32 µg/mL,≥ 32 µg/mL,≥ 32 µg/mL,≥ 32 µg/mL,≤ 4 µg/mL
CC[C@H]1OC(=O)C(C)C(=O)[C@H](C)[C@@H](O[C@@H]2OC(CN(C)Cc3ccc(F)cc3)CC(N(C)C)C2O)[C@](C)(OC)C[C@@H](C)CN[C@H](C)[C@H]2NC(=O)O[C@@]21C (stereo partly shown) [Compound 34],≥ 32 µg/mL,≥ 32 µg/mL,≥ 32 µg/mL,≥ 32 µg/mL,8 to 32 µg/mL
CC[C@H]1OC(=O)C(C)C(=O)[C@H](C)[C@@H](O[C@@H]2OC(CNCc3ccc(C(F)(F)F)cc3)CC(N(C)C)C2O)[C@](C)(OC)C[C@@H](C)CN[C@H](C)[C@H]2NC(=O)O[C@@]21C (stereo partly shown) [Compound 35],8 to 32 µg/mL,≥ 32 µg/mL,≥ 32 µg/mL,≥ 32 µg/mL,≤ 4 µg/mL
CC[C@H]1OC(=O)C(C)C(=O)[C@H](C)[C@@H](O[C@@H]2OC(CNCc3ccc(Cl)cc3)CC(N(C)C)C2O)[C@](C)(OC)C[C@@H](C)CN[C@H](C)[C@H]2NC(=O)O[C@@]21C (stereo partly shown) [Compound 36],≥ 32 µg/mL,≥ 32 µg/mL,≥ 32 µg/mL,≥ 32 µg/mL,≤ 4 µg/mL
CC[C@H]1OC(=O)C(C)C(=O)[C@H](C)[C@@H](O[C@@H]2OC(CNCc3ccc(C(C)(C)C)cc3)CC(N(C)C)C2O)[C@](C)(OC)C[C@@H](C)CN[C@H](C)[C@H]2NC(=O)O[C@@]21C (stereo partly shown) [Compound 37],≥ 32 µg/mL,≥ 32 µg/mL,≥ 32 µg/mL,≥ 32 µg/mL,≥ 32 µg/mL
CC[C@H]1OC(=O)C(C)C(=O)[C@H](C)[C@@H](O[C@@H]2OC(CNCc3ccc(F)cn3)CC(N(C)C)C2O)[C@](C)(OC)C[C@@H](C)CN[C@H](C)[C@H]2NC(=O)O[C@@]21C (stereo partly shown) [Compound 38],≥ 32 µg/mL,≥ 32 µg/mL,≥ 32 µg/mL,≥ 32 µg/mL,≤ 4 µg/mL
CC[C@H]1OC(=O)C(C)C(=O)[C@H](C)[C@@H](O[C@@H]2OC(CNCCc3ccc(F)cc3)CC(N(C)C)C2O)[C@](C)(OC)C[C@@H](C)CN[C@H](C)[C@H]2NC(=O)O[C@@]21C (stereo partly shown) [Compound 39],≥ 32 µg/mL,≥ 32 µg/mL,≥ 32 µg/mL,≥ 32 µg/mL,≤ 4 µg/mL
CC[C@H]1OC(=O)C(C)C(=O)[C@H](C)[C@@H](O[C@@H]2OC(CNCc3ccc(C#N)cc3)CC(N(C)C)C2O)[C@](C)(OC)C[C@@H](C)CN[C@H](C)[C@H]2NC(=O)O[C@@]21C (stereo partly shown) [Compound 40],≥ 32 µg/mL,≥ 32 µg/mL,≥ 32 µg/mL,≥ 32 µg/mL,≤ 4 µg/mL
CC[C@H]1OC(=O)C(C)C(=O)[C@H](C)[C@@H](O[C@@H]2OC(CNCc3cccc(C#N)c3)CC(N(C)C)C2O)[C@](C)(OC)C[C@@H](C)CN[C@H](C)[C@H]2NC(=O)O[C@@]21C (stereo partly shown) [Compound 41],≥ 32 µg/mL,≥ 32 µg/mL,≥ 32 µg/mL,≥ 32 µg/mL,≤ 4 µg/mL
CC[C@H]1OC(=O)C(C)C(=O)[C@H](C)[C@@H](O[C@@H]2OC(CNCc3ccc(OC)cc3)CC(N(C)C)C2O)[C@](C)(OC)C[C@@H](C)CN[C@H](C)[C@H]2NC(=O)O[C@@]21C (stereo partly shown) [Compound 42],≥ 32 µg/mL,≥ 32 µg/mL,≥ 32 µg/mL,≥ 32 µg/mL,≤ 4 µg/mL
CC[C@H]1OC(=O)C(C)C(=O)[C@H](C)[C@@H](O[C@@H]2OC(CNCc3cccc(OC)c3)CC(N(C)C)C2O)[C@](C)(OC)C[C@@H](C)CN[C@H](C)[C@H]2NC(=O)O[C@@]21C (stereo partly shown) [Compound 43],≥ 32 µg/mL,≥ 32 µg/mL,≥ 32 µg/mL,≥ 32 µg/mL,≤ 4 µg/mL
CC[C@H]1OC(=O)C(C)C(=O)[C@H](C)[C@@H](O[C@@H]2OC(CNCc3ccc(N(C)C)cc3)CC(N(C)C)C2O)[C@](C)(OC)C[C@@H](C)CN[C@H](C)[C@H]2NC(=O)O[C@@]21C (stereo partly shown) [Compound 44],≥ 32 µg/mL,≥ 32 µg/mL,≥ 32 µg/mL,≥ 32 µg/mL,≤ 4 µg/mL
CC[C@H]1OC(=O)C(C)C(=O)[C@H](C)[C@@H](O[C@@H]2OC(CNCc3ccc(S(C)(=O)=O)cc3)CC(N(C)C)C2O)[C@](C)(OC)C[C@@H](C)CN[C@H](C)[C@H]2NC(=O)O[C@@]21C (stereo partly shown) [Compound 45],≥ 32 µg/mL,≥ 32 µg/mL,≥ 32 µg/mL,≥ 32 µg/mL,≥ 32 µg/mL
CC[C@H]1OC(=O)C(C)C(=O)[C@H](C)[C@@H](O[C@@H]2OC(CNc3ccc(F)cc3)CC(N(C)C)C2O)[C@](C)(OC)C[C@@H](C)CN[C@H](C)[C@H]2NC(=O)O[C@@]21C (stereo partly shown) [Compound 46],≥ 32 µg/mL,8 to 32 µg/mL,8 to 32 µg/mL,≥ 32 µg/mL,≤ 4 µg/mL
CC[C@H]1OC(=O)C(C)C(=O)[C@H](C)[C@@H](O[C@@H]2OC(CNc3ccccc3F)CC(N(C)C)C2O)[C@](C)(OC)C[C@@H](C)CN[C@H](C)[C@H]2NC(=O)O[C@@]21C (stereo partly shown) [Compound 47],≥ 32 µg/mL,8 to 32 µg/mL,8 to 32 µg/mL,≥ 32 µg/mL,≤ 4 µg/mL
CC[C@H]1OC(=O)C(C)C(=O)[C@H](C)[C@@H](O[C@@H]2OC(CNc3cccc(F)c3)CC(N(C)C)C2O)[C@](C)(OC)C[C@@H](C)CN[C@H](C)[C@H]2NC(=O)O[C@@]21C (stereo partly shown) [Compound 48],≥ 32 µg/mL,≥ 32 µg/mL,8 to 32 µg/mL,≥ 32 µg/mL,8 to 32 µg/mL
CC[C@H]1OC(=O)C(C)C(=O)[C@H](C)[C@@H](O[C@@H]2OC(CNc3ccc(Cl)cc3)CC(N(C)C)C2O)[C@](C)(OC)C[C@@H](C)CN[C@H](C)[C@H]2NC(=O)O[C@@]21C (stereo partly shown) [Compound 49],≥ 32 µg/mL,≥ 32 µg/mL,8 to 32 µg/mL,≥ 32 µg/mL,8 to 32 µg/mL
CC[C@H]1OC(=O)C(C)C(=O)[C@H](C)[C@@H](O[C@@H]2OC(CNc3ccc(C#N)cc3)CC(N(C)C)C2O)[C@](C)(OC)C[C@@H](C)CN[C@H](C)[C@H]2NC(=O)O[C@@]21C (stereo partly shown) [Compound 50],≥ 32 µg/mL,≥ 32 µg/mL,≥ 32 µg/mL,≥ 32 µg/mL,8 to 32 µg/mL
CC[C@H]1OC(=O)C(C)C(=O)[C@H](C)[C@@H](O[C@@H]2OC(CNc3ccccn3)CC(N(C)C)C2O)[C@](C)(OC)C[C@@H](C)CN[C@H](C)[C@H]2NC(=O)O[C@@]21C (stereo partly shown) [Compound 51],≥ 32 µg/mL,8 to 32 µg/mL,≥ 32 µg/mL,≥ 32 µg/mL,≤ 4 µg/mL
CC[C@H]1OC(=O)C(C)C(=O)[C@H](C)[C@@H](O[C@@H]2OC(CNc3cccnc3)CC(N(C)C)C2O)[C@](C)(OC)C[C@@H](C)CN[C@H](C)[C@H]2NC(=O)O[C@@]21C (stereo partly shown) [Compound 52],≥ 32 µg/mL,8 to 32 µg/mL,≥ 32 µg/mL,≥ 32 µg/mL,≤ 4 µg/mL
C#CCNCC1CC(N(C)C)C(O)[C@H](O[C@@H]2[C@@H](C)C(=O)C(C)C(=O)O[C@H](CC)[C@@]3(C)OC(=O)N[C@@H]3[C@@H](C)NC[C@H](C)C[C@@]2(C)OC)O1 (stereo partly shown) [Compound 53],≥ 32 µg/mL,8 to 32 µg/mL,≥ 32 µg/mL,≥ 32 µg/mL,≤ 4 µg/mL
